Measured values published in BindingDB's records for doi:10.1016/j.bmcl.2011.09.056 (Merck Research Laboratories, 2011).
pKi: −log10 of the molar value.

Key:
[1] = Displacement of [125I]CGRP form CGRP receptor in human SK-N-MC cell membrane by competitive binding assay
[2] = Displacement of [125I]CGRP form CGRP receptor in human SK-N-MC cell membrane by competitive binding assay in the absence of MgCl2

- pKi [1]: 11.00
- pKi [2]: 11.00
Compound: CC(C)C[C@H](NC(=O)CNC(=O)[C@H](C)NC(=O)[C@H](CC(C)C)NC(=O)[C@H](CCCN=C(N)N)NC(=O)[C@H](Cc1cnc[nH]1)NC(=O)[C@@H](NC(=O)[C@@H](NC(=O)[C@H](CS)NC(=O)[C@@H](NC(=O)[C@H](C)NC(=O)[C@@H](NC(=O)[C@H](CC(=O)O)NC(=O)[C@H](CS)NC(=O)[C@H](C)N)[C@@H](C)O)[C@@H](C)O)C(C)C)[C@@H](C)O)C(=O)N[C@@H](CC(C)C)C(=O)N[C@@H](CO)C(=O)N[C@@H](CCCN=C(N)N)C(=O)N[C@@H](CO)C(=O)NCC(=O)NCC(=O)N[C@H](C(=O)N[C@H](C(=O)N[C@@H](CCCCN)C(=O)N[C@@H](CC(N)=O)C(=O)N[C@@H](CC(N)=O)C(=O)N[C@@H](Cc1ccccc1)C(=O)N[C@H](C(=O)N1CCC[C@H]1C(=O)N[C@H](C(=O)N[C@@H](CC(N)=O)C(=O)N[C@H](C(=O)NCC(=O)N[C@@H](CO)C(=O)N[C@@H](CCCCN)C(=O)N[C@@H](C)C(=O)N[C@@H](Cc1ccccc1)C(N)=O)C(C)C)[C@@H](C)O)C(C)C)C(C)C)C(C)C
